Laboratory results published in paper PMC10303036 (Journal of medicinal chemistry, 2022).
In brackets after ≈: the same amount, converted by molar mass. Entries after “also recorded” stand apart in the source; their conditions may differ. Like-named read-outs stand apart in the source and are kept apart here.

Assays:
[1] = target: E. coli ACC (Escherichia coli, UniProt P0A9Q5+P0ABD5+P24182); assay: ACC activity fluorescence polarization assay; assay type: biochemical; settings: for IC50: IC50, fluorescence polarization assay, triplicate, ± SD; for Ki: Ki (apparent, Morrison equation), tight binding inhibitors (IC50 < 0.5 nM), fluorescence polarization assay
[2] = target: ACC complex (Escherichia coli, UniProt P0A9Q5+P0ABD5+P24182); assay: Spin-column LC-MS/MS competition assay; assay type: binding, E. coli; settings: for dissociation from ACC with 1 and 3 together: 50 μM of 1 and 3 together added to ACC-inhibitor complex; for dissociation from ACC with 1 alone: 100 μM of 1 alone added to ACC-inhibitor complex
[3] = literature antibacterial activity, strain not stated; cited from earlier work
[4] = system: E. coli ΔtolC; assay type: cell-based

ACC complex, sequence (P0A9Q5 whole entry): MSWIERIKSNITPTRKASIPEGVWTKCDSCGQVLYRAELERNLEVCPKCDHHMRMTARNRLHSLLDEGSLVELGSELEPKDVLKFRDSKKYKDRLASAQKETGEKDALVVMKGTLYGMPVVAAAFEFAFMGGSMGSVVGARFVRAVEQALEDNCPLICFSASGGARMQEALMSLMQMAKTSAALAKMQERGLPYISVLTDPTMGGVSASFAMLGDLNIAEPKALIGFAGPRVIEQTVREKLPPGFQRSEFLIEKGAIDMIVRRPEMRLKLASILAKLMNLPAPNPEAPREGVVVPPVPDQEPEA
ACC complex, sequence (P0ABD5 whole entry): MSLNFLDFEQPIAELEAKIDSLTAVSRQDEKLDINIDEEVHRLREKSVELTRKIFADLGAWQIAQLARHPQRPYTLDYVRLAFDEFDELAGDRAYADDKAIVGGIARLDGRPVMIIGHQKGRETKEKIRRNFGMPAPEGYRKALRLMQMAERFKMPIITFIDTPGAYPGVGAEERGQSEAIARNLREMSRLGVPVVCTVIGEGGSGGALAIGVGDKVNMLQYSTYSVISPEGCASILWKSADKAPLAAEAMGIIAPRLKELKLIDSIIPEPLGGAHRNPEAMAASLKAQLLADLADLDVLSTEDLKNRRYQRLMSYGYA
E. coli ACC, sequence (P0ABD5 whole entry): as above
E. coli ACC, sequence (P0A9Q5 whole entry): as the sequence (P0A9Q5 whole entry) above

Compound `C/C=C/C=C/C(=O)N[C@@H](CC(=O)N[C@H](C(=O)[C@@H]1C(=O)NC(=O)[C@H]1C)C(C)C)c1ccccc1` [Compound 3, moiramide B, reference compound] has an IC50 [1] of 5 nM.
`CC(C)[C@H](NC(=O)C[C@H](NC(=O)CCCCCCCCCCn1cc(CCCCOCCOCCOCCOCCOCCOCCOc2cc(Br)c(-c3cc4cnc(N)nc4nc3N)c(Br)c2)nn1)c1ccccc1)C(=O)[C@@H]1C(=O)NC(=O)[C@H]1C` [Compound 17-p, 11-(4-(22-(3,5-dibromo-4-(2,7-diaminopyrido[2,3-d]pyrimidin-6-yl)phenoxy)-5,8,11,14,17,20-hexaoxadocos-1-yl)-1H-1,2,3-triazol-1-yl)-N-((1S)-3-(((2S)-3-methyl-1-((3R,4S)-4-methyl-2,5-dioxopyrrolidin-3-yl)-1-oxobutan-2-yl)amino)-3-oxo-1-phenylpropyl)undecanamide] showed a Ki [1] of 3.53 nM.
With `CC(C)[C@H](NC(=O)C[C@H](NC(=O)CCCCCCCCCCn1cc(CCCCOCCOCCOCCOc2ccc(Br)c(-c3cc4cnc(N)nc4nc3N)c2Br)nn1)c1ccccc1)C(=O)[C@@H]1C(=O)NC(=O)[C@H]1C` [Compound 16, 11-(4-(4-(2-(2-(2-(2,4-dibromo-3-(2,7-diaminopyrido[2,3-d]pyrimidin-6-yl)phenoxy)ethoxy)ethoxy)ethoxy)butyl)-1H-1,2,3-triazol-1-yl)-N-((1S)-3-(((2S)-3-methyl-1-((3R,4S)-4-methyl-2,5-dioxopyrrolidin-3-yl)-1-oxobutan-2-yl)amino)-3-oxo-1-phenylpropyl)undecanamide] the “dissociation from ACC with 1 and 3 together” value [2] was “rapid dissociation” and the “dissociation from ACC with 1 alone” value [2] was “little or no dissociation”.
In the case of `Nc1ncc(C(=O)N(Cc2ccccc2)Cc2ccccc2)o1` [Compound 2], the MIC [3] is listed as greater than 64 µg/mL.
With `C#CCCCCOCCOCCOCCOCCOCCOCCOCCOCCOCCOCCOCCOCCOc1ccc(Br)c(-c2cc3cnc(N)nc3nc2N)c1Br` [Compound 9e, 6-(2,6-dibromo-3-(3,6,9,12,15,18,21,24,27,30,33,36-dodecaoxadotetracont-41-yn-1-yloxy)phenyl)pyrido[2,3-d]pyrimidine-2,7-diamine] the “MIC ΔtolC + PMBN” value ([4]; PMBN 6 μM (8 μg/mL)) was 12.5 µM.
`C#CCCCCOCCOCCOCCOCCOCCOCCOc1cc(Br)c(-c2cc3cnc(N)nc3nc2N)c(Br)c1` [Compound 9c-p, 6-(2,6-dibromo-4-(3,6,9,12,15,18-hexaoxatetracos-23-yn-1-yloxy)phenyl)pyrido[2,3-d]pyrimidine-2,7-diamine] showed an IC50 [1] greater than 500 nM.
With `CC(C)[C@H](NC(=O)C[C@H](NC(=O)CCCCCCCCCCn1cc(CCCCOc2ccc(Br)c(-c3cc4cnc(N)nc4nc3N)c2Br)nn1)c1ccccc1)C(=O)[C@@H]1C(=O)NC(=O)[C@H]1C` [Compound 15, 11-(4-(4-(2,4-dibromo-3-(2,7-diaminopyrido[2,3-d]pyrimidin-6-yl)phenoxy)butyl)-1H-1,2,3-triazol-1-yl)-N-((1S)-3-(((2S)-3-methyl-1-((3R,4S)-4-methyl-2,5-dioxopyrrolidin-3-yl)-1-oxobutan-2-yl)amino)-3-oxo-1-phenylpropyl)undecanamide] the “dissociation from ACC with 1 and 3 together” value [2] was “rapid dissociation” and the “dissociation from ACC with 1 alone” value [2] was “little or no dissociation”.
In the case of `CC(C)[C@H](NC(=O)C[C@H](NC(=O)CCCCCCCCCCn1cc(CCCCOCCOCCOCCOCCOCCOCCOc2ccc(Br)c(-c3cc4cnc(N)nc4nc3N)c2Br)nn1)c1ccccc1)C(=O)[C@@H]1C(=O)NC(=O)[C@H]1C` [Compound 17, 11-(4-(22-(2,4-dibromo-3-(2,7-diaminopyrido[2,3-d]pyrimidin-6-yl)phenoxy)-5,8,11,14,17,20-hexaoxadocos-1-yl)-1H-1,2,3-triazol-1-yl)-N-((1S)-3-(((2S)-3-methyl-1-((3R,4S)-4-methyl-2,5-dioxopyrrolidin-3-yl)-1-oxobutan-2-yl)amino)-3-oxo-1-phenylpropyl)undecanamide], the Ki [1] is reported as 0.2 nM, the “MIC ΔtolC + PMBN” value ([4]; PMBN included) is reported as 0.5 µg/mL and the “MIC ΔtolC” value ([4]; without PMBN) is reported as 4 µg/mL (≈ 3.02 µM). The “dissociation from ACC with 1 and 3 together” value [2] was “rapid dissociation” and the “dissociation from ACC with 1 or 3 alone” value ([2]; 100 μM (100-fold excess) of 1 or 3 alone added to ACC-inhibitor complex) was “unable to displace; also recorded: No dissociation”.
